# Measurements reported in US9149475B2, “Protein kinase C inhibitors and uses thereof” (Rigel Pharmaceuticals, Inc., priority 2009, dated 2015).
# Where a name gives a salt, the structure may show the parent alone.
# Tested on: Human primary T cells
# Assay: IL-2 ELISA, human primary T cell, anti-CD3+CD28+ (whole cell assay)
# Type: cell-based
# Details: Homo sapiens, T-cell, 24 h, human primary T cells stimulated with anti-CD3 + anti-CD28, 24 hours
# Outline: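 PBMC-derived T cells, pre-expanded on αCD3/αCD28 with IL-2 and then washed free of IL-2, were preincubated with compound for 1 hr at 37° C (100,000 cells/well). They were then stimulated on 1 μg/ml αCD3 plus 5 μg/ml αCD28 for 24 h, and supernatant IL-2 was measured by ELISA. The counter-assay used 0.5 ng/ml PMA plus 0.1 μM ionomycin instead.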
row,IC50 [nM],Structure (SMILES)
1,> 1000,"CC1(C)CC(Nc2nc(Nc3cccc(-c4nnnn4CCN4CCOCC4)c3)ncc2F)CC(C)(C)N1 [III-77, 5-fluoro-N2-(3-(1-(2-morpholinoethyl)-1H-tetrazol-5-yl)phenyl)-N4-(2,2,6,6-tetramethylpiperidin-4-yl)pyrimidine-2,4-diamine]"
2,250 to 500,"CN1C(C)(C)CC(Nc2nc(Nc3cc(OC(F)F)cc(C(F)(F)F)c3)ncc2F)CC1(C)C [Compound I-107, N2-(3-(difluoromethoxy)-5-(trifluoromethyl)phenyl)-5-fluoro-N4-(1,2,2,6,6-pentamethylpiperidin-4-yl)pyrimidine-2,4-diamine]"
3,500 to 1000,"CN1C(C)(C)CC(Nc2nc(Nc3cc(F)c(OC4CCN(S(C)(=O)=O)CC4)c(F)c3)ncc2F)CC1(C)C [III-78, N2-(3,5-difluoro-4-(1-(methylsulfonyl)piperidin-4-yloxy)phenyl)-5-fluoro-N4-(1,2,2,6,6-pentamethylpiperidin-4-yl)pyrimidine-2,4-diamine]"
4,500 to 1000,"CC1(C)CC(Nc2nc(Nc3cc(OCCn4cncn4)cc(C(F)(F)F)c3)ncc2F)CC(C)(C)N1 [Compound I-28, N2-(3-(2-(1H-1,2,4-triazol-1-yl)ethoxy)-5-(trifluoromethyl)phenyl)-5-fluoro-N4-(2,2,6,6-tetramethylpiperidin-4-yl)pyrimidine-2,4-diamine]"
5,500 to 1000,"CC1(C)CC(Nc2nc(Nc3ccc(OC4CCOCC4)c(F)c3)ncc2F)CC(C)(C)N1 [III-109, 5-fluoro-N2-(3-fluoro-4-(tetrahydro-2H-pyran-4-yloxy)phenyl)-N4-(2,2,6,6-tetramethylpiperidin-4-yl)pyrimidine-2,4-diamine]"
6,500 to 1000,"CC(C)N1CCC(Oc2ccc(Nc3ncc(F)c(NC4CC(C)(C)NC(C)(C)C4)n3)cc2OC(F)F)C(F)C1 (stereo not shown) [III-104, N2-(3-(difluoromethoxy)-4-(3-fluoro-1-isopropylpiperidin-4-yloxy)phenyl)-5-fluoro-N4-(2,2,6,6-tetramethylpiperidin-4-yl)pyrimidine-2,4-diamine trifluoroacetate salt]"
7,500 to 1000,"CCNC(=O)N1CCCC(Oc2c(F)cc(Nc3ncc(F)c(NC4CC(C)(C)N(C)C(C)(C)C4)n3)cc2F)CC1 (stereo not shown) [III-83, 4-(2,6-difluoro-4-(5-fluoro-4-(1,2,2,6,6-pentamethylpiperidin-4-ylamino)pyrimidin-2-ylamino)phenoxy)-N-ethylazepane-1-carboxamide]"
8,250 to 500,"CC(C)N1CCC(Oc2ccc(Nc3ncc(F)c(NC4CC(C)(C)NC(C)(C)C4)n3)cc2C(F)(F)F)CC1 [III-102, 5-fluoro-N2-(4-(1-isopropylpiperidin-4-yloxy)-3-(trifluoromethyl)phenyl)-N4-(2,2,6,6-tetramethylpiperidin-4-yl)pyrimidine-2,4-diamine]"
9,250 to 500,"CN1C(C)(C)CC(Nc2nc(Nc3ccc(OC4CCNCC4)c(OC(F)F)c3)ncc2F)CC1(C)C [III-27, N2-(3-(difluoromethoxy)-4-(piperidin-4-yloxy)phenyl)-5-fluoro-N4-(1,2,2,6,6-pentamethylpiperidin-4-yl)pyrimidine-2,4-diamine]"
10,250 to 500,"CC1(C)CC(Nc2nc(Nc3ccc(OC4CCN(CCF)CC4)c(OC(F)F)c3)ncc2F)CC(C)(C)N1 [III-50, N2-(3-(difluoromethoxy)-4-(1-(2-fluoroethyl)piperidin-4-yloxy)phenyl)-5-fluoro-N4-(2,2,6,6-tetramethylpiperidin-4-yl)pyrimidine-2,4-diamine]"
11,> 1000,"CC1(C)CC(Nc2nc(Nc3cnc(OCCN4CCCC4=O)c(OC(F)F)c3)ncc2F)CC(C)(C)N1 [Compound I-141, 1-(2-(3-(difluoromethoxy)-5-(5-fluoro-4-(2,2,6,6-tetramethylpiperidin-4-ylamino)pyrimidin-2-ylamino)pyridin-2-yloxy)ethyl)pyrrolidin-2-one]"
12,500 to 1000,"CC1(C)CC(Nc2nc(Nc3cc(OCCn4ccnn4)cc(C(F)(F)F)c3)ncc2F)CC(C)(C)N1 [Compound I-32, N2-(3-(2-(1H-1,2,3-triazol-1-yl)ethoxy)-5-(trifluoromethyl)phenyl)-5-fluoro-N4-(2,2,6,6-tetramethylpiperidin-4-yl)pyrimidine-2,4-diamine]"
13,> 1000,"CC1(C)CC(Nc2nc(Nc3ccc(OC4CCNCC4)c(OC(F)F)c3)ncc2F)CC(C)(C)N1 [III-28, N2-(3-(difluoromethoxy)-4-(piperidin-4-yloxy)phenyl)-5-fluoro-N4-(2,2,6,6-tetramethylpiperidin-4-yl)pyrimidine-2,4-diamine]"
14,< 250,"[2H]C([2H])([2H])N1C(C)(C)CC(Nc2nc(Nc3cccc(-n4cnnn4)c3)ncc2F)CC1(C)C [III-114, 5-fluoro-N2-(3-(1H-tetrazol-1-yl)phenyl)-N4-(1-trideuteromethyl-2,2,6,6-tetramethylpiperidin-4-yl)pyrimidine-2,4-diamine]"
15,> 1000,"CC(=O)N1CCC(Oc2c(F)cc(Nc3ncc(F)c(NC4CC(C)(C)NC(C)(C)C4)n3)cc2F)CC1 [III-92, 1-(4-(2,6-difluoro-4-(5-fluoro-4-(2,2,6,6-tetramethylpiperidin-4-ylamino)pyrimidin-2-ylamino)phenoxy)piperidin-1-yl)ethanone]"
16,250 to 500,"CCc1nnnn1-c1cc(Nc2ncc(F)c(NC3CC(C)(C)NC(C)(C)C3)n2)ccc1OC(F)F [III-67, N2-(4-(difluoromethoxy)-3-(5-ethyl-1H-tetrazol-1-yl)phenyl)-5-fluoro-N4-(2,2,6,6-tetramethylpiperidin-4-yl)pyrimidine-2,4-diamine]"
17,500 to 1000,"Cn1nnnc1-c1cc(Nc2ncc(F)c(NC3CC(C)(C)NC(C)(C)C3)n2)ccc1F [III-120, 5-fluoro-N2-(4-fluoro-3-(1-methyl-1H-tetrazol-5-yl)phenyl)-N4-(2,2,6,6-tetramethylpiperidin-4-yl)pyrimidine-2,4-diamine]"
18,< 250,"CN1C(C)(C)CC(Nc2nc(Nc3ccc(OCCN4CCCC4=O)c(OC(F)F)c3)ncc2F)CC1(C)C [Compound I-31, 1-(2-(4-(4-(1,2,2,6,6-pentamethylpiperidin-4-ylamino)-5-fluoropyrimidin-2-ylamino)-2-(difluoromethoxy)phenoxy)ethyl)pyrrolidin-2-one]"
19,> 1000,"CC1(C)CC(Nc2nc(Nc3cc(F)cc(OCCN4CCCC4=O)c3)ncc2F)CC(C)(C)N1 [Compound I-37, 1-(2-(3-(4-(2,2,6,6-tetramethylpiperidin-4-ylamino)-5-fluoropyrimidin-2-ylamino)-5-fluorophenoxy)ethyl)pyrrolidin-2-one]"
20,500 to 1000,"CN1C(C)(C)CC(Nc2nc(Nc3cc(OCCCn4cccc4)cc(C(F)(F)F)c3)ncc2F)CC1(C)C [Compound I-49, N2-(3-(3-(1H-pyrrol-1-yl)propoxy)-5-(trifluoromethyl)phenyl)-5-fluoro-N4-(1,2,2,6,6-pentamethylpiperidin-4-yl)pyrimidine-2,4-diamine]"
21,500 to 1000,"CN1C(C)(C)CC(Nc2nc(Nc3cc(F)c(OC4CCCN(S(C)(=O)=O)CC4)c(F)c3)ncc2F)CC1(C)C (stereo not shown) [III-79, N2-(3,5-difluoro-4-(1-(methylsulfonyl)azepan-4-yloxy)phenyl)-5-fluoro-N4-(1,2,2,6,6-pentamethylpiperidin-4-yl)pyrimidine-2,4-diamine]"

# Same assay, conditions: human primary T cells stimulated with anti-CD3 + anti-CD28, 24 hours
row,IC50 [nM],Structure (SMILES)
1,< 250,"CCCc1nnnn1-c1cc(Nc2ncc(F)c(NC3CC(C)(C)NC(C)(C)C3)n2)ccc1OC [Compound I-74, 5-fluoro-N2-[4-methoxy-3-(5-propyl-1H-tetrazol-1-yl)]phenyl-N4-(2,2,6,6-tetramethylpiperidin-4-yl)-2,4-pyrimidinediamine]"
